Assays:
[1] = biological target: T1, Adrenergic receptor alpha-2 (Rattus norvegicus) (UniProt P22086+P19328+P22909)
[2] = biological target: T2, Alpha-2A adrenergic receptor (Bos taurus, UniProt Q28838); assay: Binding activity against alpha-2 adrenergic receptor from calf cerebral cortex, using [3H]clonidine as the radioligand; assay type: tissue-based
T2 sequence (Q28838 whole entry): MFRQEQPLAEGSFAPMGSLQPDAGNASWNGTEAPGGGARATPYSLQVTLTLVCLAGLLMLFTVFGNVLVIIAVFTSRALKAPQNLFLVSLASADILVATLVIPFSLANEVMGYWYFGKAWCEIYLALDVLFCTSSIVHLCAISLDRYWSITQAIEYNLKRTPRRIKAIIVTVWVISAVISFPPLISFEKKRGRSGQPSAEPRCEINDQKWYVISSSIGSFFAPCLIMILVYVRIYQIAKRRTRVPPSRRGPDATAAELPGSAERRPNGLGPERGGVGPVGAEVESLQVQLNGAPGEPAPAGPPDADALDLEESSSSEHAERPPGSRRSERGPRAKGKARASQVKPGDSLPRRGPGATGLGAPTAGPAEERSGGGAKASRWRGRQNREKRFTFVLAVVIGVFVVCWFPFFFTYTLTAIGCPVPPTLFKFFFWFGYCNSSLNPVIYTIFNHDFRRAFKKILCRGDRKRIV

[3] = biological target: T3, Alpha-1A adrenergic receptor (Bos taurus, UniProt P18130); assay: Binding activity against alpha-1 adrenergic receptor from calf cerebral cortex, using [3H]-prazosin as the radioligand; assay type: tissue-based
T3 sequence (P18130 whole entry): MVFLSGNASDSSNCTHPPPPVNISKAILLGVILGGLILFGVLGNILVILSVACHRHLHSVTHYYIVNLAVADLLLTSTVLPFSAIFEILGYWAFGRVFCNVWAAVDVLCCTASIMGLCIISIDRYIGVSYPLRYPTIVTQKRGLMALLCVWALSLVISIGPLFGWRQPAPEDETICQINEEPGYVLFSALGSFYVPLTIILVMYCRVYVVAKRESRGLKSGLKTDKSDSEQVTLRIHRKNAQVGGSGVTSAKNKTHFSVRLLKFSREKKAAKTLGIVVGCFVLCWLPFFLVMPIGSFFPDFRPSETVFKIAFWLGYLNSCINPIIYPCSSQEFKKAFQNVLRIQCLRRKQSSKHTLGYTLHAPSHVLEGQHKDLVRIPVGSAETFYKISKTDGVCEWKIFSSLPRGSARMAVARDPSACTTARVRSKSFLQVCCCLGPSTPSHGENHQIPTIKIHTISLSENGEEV

[4] = biological target: T4, Adrenergic receptor alpha-2 (Rattus norvegicus, UniProt P22086+P19328+P22909); assay: Presynaptic antagonistic activity against alpha-2 adrenergic receptor from rat, isolated, field-stimulated vas deferens, using clonidine as the agonist; assay type: functional
T4 sequence (P22086 whole entry): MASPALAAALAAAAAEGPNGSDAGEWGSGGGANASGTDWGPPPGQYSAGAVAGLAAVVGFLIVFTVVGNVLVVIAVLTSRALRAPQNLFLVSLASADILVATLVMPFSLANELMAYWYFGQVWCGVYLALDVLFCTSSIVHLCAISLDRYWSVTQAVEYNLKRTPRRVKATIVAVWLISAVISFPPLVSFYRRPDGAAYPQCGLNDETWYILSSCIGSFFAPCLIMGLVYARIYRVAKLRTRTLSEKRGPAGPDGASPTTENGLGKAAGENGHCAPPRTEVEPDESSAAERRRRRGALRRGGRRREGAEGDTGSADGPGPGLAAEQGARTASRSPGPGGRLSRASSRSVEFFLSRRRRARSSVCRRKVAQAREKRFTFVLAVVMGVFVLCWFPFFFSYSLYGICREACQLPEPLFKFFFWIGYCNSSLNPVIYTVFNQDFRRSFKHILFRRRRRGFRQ
T4 sequence (P19328 whole entry): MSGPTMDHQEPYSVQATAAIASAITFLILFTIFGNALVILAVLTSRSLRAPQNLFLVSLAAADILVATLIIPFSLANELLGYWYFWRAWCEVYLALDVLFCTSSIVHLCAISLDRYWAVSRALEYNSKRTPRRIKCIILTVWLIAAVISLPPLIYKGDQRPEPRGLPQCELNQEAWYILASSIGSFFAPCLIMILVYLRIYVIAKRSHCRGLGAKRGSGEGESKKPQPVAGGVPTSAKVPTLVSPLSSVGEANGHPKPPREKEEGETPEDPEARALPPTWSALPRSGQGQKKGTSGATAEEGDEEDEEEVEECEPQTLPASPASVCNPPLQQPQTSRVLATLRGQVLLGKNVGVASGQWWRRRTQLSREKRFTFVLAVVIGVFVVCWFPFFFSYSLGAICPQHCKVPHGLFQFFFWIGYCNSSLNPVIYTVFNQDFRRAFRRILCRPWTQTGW
T4 sequence (P22909 whole entry): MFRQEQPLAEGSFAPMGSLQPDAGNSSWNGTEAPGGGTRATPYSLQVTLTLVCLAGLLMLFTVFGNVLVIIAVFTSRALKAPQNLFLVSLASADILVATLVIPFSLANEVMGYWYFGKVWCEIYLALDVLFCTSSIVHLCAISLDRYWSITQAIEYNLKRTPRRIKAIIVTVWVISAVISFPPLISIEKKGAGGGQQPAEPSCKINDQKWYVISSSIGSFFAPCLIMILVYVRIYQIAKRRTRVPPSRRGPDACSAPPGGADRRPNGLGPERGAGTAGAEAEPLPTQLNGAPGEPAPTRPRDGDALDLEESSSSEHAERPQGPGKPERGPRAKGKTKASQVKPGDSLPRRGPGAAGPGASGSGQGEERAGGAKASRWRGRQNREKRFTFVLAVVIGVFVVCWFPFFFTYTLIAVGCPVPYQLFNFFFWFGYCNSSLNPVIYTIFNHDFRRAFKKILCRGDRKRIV

[5] = biological target: T5, Adrenergic receptor alpha-1 (Rattus norvegicus, UniProt P15823+P23944+P43140); assay: Presynaptic antagonistic activity against alpha-1 adrenergic receptor from rat, isolated, field-stimulated vas deferens, using methoxamine as the agonist; assay type: functional
T5 sequence (P15823 whole entry): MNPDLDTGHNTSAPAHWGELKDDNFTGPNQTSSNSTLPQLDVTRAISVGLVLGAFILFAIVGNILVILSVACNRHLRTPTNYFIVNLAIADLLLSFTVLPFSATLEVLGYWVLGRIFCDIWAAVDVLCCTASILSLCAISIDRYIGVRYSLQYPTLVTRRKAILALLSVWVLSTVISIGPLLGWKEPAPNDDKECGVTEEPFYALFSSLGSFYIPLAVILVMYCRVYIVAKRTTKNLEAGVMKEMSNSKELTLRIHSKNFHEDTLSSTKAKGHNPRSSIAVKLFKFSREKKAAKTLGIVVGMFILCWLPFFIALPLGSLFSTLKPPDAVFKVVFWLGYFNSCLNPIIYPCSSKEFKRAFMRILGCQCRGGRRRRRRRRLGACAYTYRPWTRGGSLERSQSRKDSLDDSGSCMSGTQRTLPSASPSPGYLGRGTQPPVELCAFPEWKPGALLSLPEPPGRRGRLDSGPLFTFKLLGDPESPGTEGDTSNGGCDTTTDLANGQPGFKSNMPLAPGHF
T5 sequence (P23944 whole entry): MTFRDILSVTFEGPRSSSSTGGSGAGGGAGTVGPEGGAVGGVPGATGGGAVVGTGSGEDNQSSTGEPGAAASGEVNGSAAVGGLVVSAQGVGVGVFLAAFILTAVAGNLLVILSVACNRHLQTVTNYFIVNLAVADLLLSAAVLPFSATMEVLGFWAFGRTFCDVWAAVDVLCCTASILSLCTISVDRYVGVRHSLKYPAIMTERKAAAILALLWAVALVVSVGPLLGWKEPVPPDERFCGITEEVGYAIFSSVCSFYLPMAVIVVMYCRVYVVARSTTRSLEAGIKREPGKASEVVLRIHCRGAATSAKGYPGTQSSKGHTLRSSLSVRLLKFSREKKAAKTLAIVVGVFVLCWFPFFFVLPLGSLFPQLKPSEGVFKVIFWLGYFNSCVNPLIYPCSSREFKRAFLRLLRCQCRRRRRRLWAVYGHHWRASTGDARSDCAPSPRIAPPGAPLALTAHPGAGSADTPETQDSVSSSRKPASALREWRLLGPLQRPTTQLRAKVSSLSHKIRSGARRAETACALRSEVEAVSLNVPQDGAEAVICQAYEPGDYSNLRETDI
T5 sequence (P43140 whole entry): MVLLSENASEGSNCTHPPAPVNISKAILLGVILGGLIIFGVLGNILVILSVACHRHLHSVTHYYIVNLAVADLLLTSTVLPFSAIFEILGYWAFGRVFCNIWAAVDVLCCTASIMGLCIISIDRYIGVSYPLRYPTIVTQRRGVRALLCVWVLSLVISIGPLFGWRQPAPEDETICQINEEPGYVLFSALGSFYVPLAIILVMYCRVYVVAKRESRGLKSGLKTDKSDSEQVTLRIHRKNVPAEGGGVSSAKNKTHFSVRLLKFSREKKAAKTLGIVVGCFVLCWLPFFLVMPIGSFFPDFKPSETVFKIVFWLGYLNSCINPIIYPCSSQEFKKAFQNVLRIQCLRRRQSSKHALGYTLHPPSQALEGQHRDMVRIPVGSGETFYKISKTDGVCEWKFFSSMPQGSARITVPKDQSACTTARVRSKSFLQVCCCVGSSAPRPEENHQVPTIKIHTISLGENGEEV

[6] = biological target: T1, Adrenergic receptor alpha-2 (Rattus norvegicus); assay: Antagonistic activity against central alpha-2 adrenergic receptor, in anesthetized rats, by reversing the established clonidine-induced mydriasis; 0.3-1; assay type: functional

| SMILES | AD50 [1] | Ki [2] | Ki [3] | pA2 [4] | pA2 [5] | AD50 [6] |
| --- | --- | --- | --- | --- | --- | --- |
| CN1CCN2c3ccccc3Cc3ccccc3C2C1 (stereo unspecified) | > 10 mg/kg |  |  |  |  |  |
| Clc1ccc(N2CCNCC2)nc1 | > 3 mg/kg | 1.34 µM | 0.9 µM | < 5.8 |  |  |
| O=[N+]([O-])c1cccnc1N1CCNCC1 | 1.53 mg/kg | 0.026 µM | 3.8 µM | 6.3 |  |  |
| Fc1cccnc1N1CCNCC1 | 0.23 mg/kg | 0.0082 µM | 2.5 µM | 6.9 | 5.18 |  |
| Clc1cccnc1N1CCN(Cc2ccccc2)CC1 | > 3 mg/kg | 0.12 µM | 0.7 µM | 6.5 | 7 |  |
| Ic1cccnc1N1CCNCC1 | 1.95 mg/kg |  | 1.6 µM | 6.2 | 6 |  |
| CN1CCN(c2ncccc2F)CC1 | 0.67 mg/kg | 0.005 µM | 0.49 µM | 7.4 | 6.2 |  |
| Clc1ccccc1N1CCNCC1 | 1.03 mg/kg | 0.025 µM | 0.16 µM | 6 | 6.5 |  |
| c1ccc(N2CCNCC2)nc1 | 1.28 mg/kg |  | 2.4 µM | 6.4 | 5.7 |  |
| N#Cc1cccnc1N1CCNCC1 | 1.07 mg/kg | 0.014 µM | 2 µM | 6.1 |  |  |
| CN1CCN(c2ncccc2Cl)CC1 | 0.56 mg/kg | 0.0027 µM | 0.215 µM | 7.4 | 6.5 |  |
| Clc1cccnc1N1CCNCC1 | 0.44 mg/kg |  | 1.8 µM | 6.9 | 5.7 |  |
| Brc1cccnc1N1CCNCC1 | 0.68 mg/kg |  | 1.48 µM | 6.6 | 5.8 |  |
| Cc1ccnc(N2CCNCC2)c1Cl | 14 mg/kg | 0.074 µM | 4.3 µM | 5.9 |  |  |
| Nc1cccnc1N1CCNCC1 | > 3 mg/kg | 0.44 µM | 31 µM | < 5.8 |  |  |
| COC(=O)[C@H]1[C@H]2C[C@H]3c4[nH]c5ccccc5c4CCN3C[C@H]2CC[C@@H]1O | 1.1 mg/kg |  |  |  |  |  |
| FC(F)(F)c1cccnc1N1CCNCC1 | 3.63 mg/kg | 0.097 µM | 2.85 µM | < 5.8 |  |  |
| COC(=O)[C@@H]1[C@H]2C[C@H]3c4[nH]c5ccccc5c4CCN3C[C@@H]2CC[C@@H]1O | 1.04 mg/kg |  |  |  |  |  |
| c1ccc2c(c1)OCC(C1=NCCN1)O2 (stereo unspecified) [IDAZOXAN] | 0.05 mg/kg | 0.0015 µM | 0.5 µM |  |  |  |
| Clc1cnc(N2CCNCC2)c(Cl)c1 | > 3 mg/kg | 0.5 µM | 0.8 µM | < 5.8 |  |  |
| CN1CCN(c2ncccc2Br)CC1 | 0.74 mg/kg |  | 0.16 µM | 7.6 | 6.5 |  |
| NC(=O)c1cccnc1N1CCNCC1 | > 3 mg/kg | 5.2 µM | 62 µM | < 5.8 |  |  |
| Clc1cnccc1N1CCNCC1 | > 3 mg/kg | 0.39 µM | 6.8 µM | < 5.8 |  |  |
| Clc1cccc(N2CCNCC2)n1 |  |  | 0.375 µM | 6.8 | 6 | 0.3 mg/kg |

From ChEMBL document CHEMBL1122408, “Pyridinylpiperazines, a new class of selective alpha 2-adrenoceptor antagonists” (J Med Chem, 1983)
